The values that follow come from paper PMC11642044 (International Journal of Molecular Sciences, 2024).

Common to all, as to type: cell-based, human
One test concerns p38 in U87-MG cells. The test is described as follows: p38 phosphorylation in U87-MG by SK-N-MC-derived conditioned media (CM-SK). The conditions noted are these: HOE-140 5 μM, 15 min pre-treatment. On the procedure: (§1) These conditioned media were either immediately applied to SK-N-SH/SK-N-MC cells (80–100% confluence) in 6-well plates for 15 min, or subjected to heat treatment on a 96 °C heat block for 5 min, and then cooled to 37 °C before they were applied to the SK-N-SH/SK-N-MC cells for 15 min. […] For the SK-N-MC-derived conditioned media, SK-N-MC cells (80–100% confluence) in a 10 cm culture dish were serum-starved in 10 mL of MEM (without FBS), with 1 mL of the resulting conditioned medium being collected at indicated time points (15 min, 1 h, 3 h, 6 h). Simultaneously, U87-MG cells (80–100% confluence) in 12-well plates were serum-starved in MEM for 6 h, followed by pretreatment of […] (5 μM, 15 min), and then challenged with the SK-N-MC-derived conditioned media (mentioned above) for 10 min before cell lysis. […]
(§2) SDS-PAGE and Western blotting were performed as described in our previous studies. […] The amount of protein in each sample was determined by detergent compatible (DC) protein assay according to the supplier’s instruction (Bio-Rad, Hercules, CA, USA). […] Resolved proteins were detected by specific primary antibodies and horseradish peroxidase-conjugated secondary antisera. The level of β-actin was determined as an internal control.

Another test relates to p38 MAPK. The test is described as follows: Stimulatory phosphorylation of p38 MAPK (Western blot), U87-MG. The conditions noted are these: 5 μM HOE-140, 1 µM bradykinin, 10 min. As to the method: (§3) The resulting Ca^2+ signal profiles were monitored by FLIPR for 3 min.
(§4) SDS-PAGE and Western blotting were performed as described in our previous studies. In brief, cells in 6-well plates (5 × 10^5 cells/well) were lysed in 500 μL of ice-cold lysis buffer (50 mM Tris-HCl at pH 7.5 containing 100 mM NaCl, 5 mM EDTA, 40 mM NaP2O7, 1% Triton X-100, 1 mM dithiothreitol, 200 μM Na3VO4, 100 μM phenylmethylsulfonyl fluoride, 2 μg/mL leupeptin, 4 μg/mL aprotinin, and 0.7 μg/mL pepstatin) and then gently shaken for 30 min. The amount of protein in each sample was determined by detergent compatible (DC) protein assay according to the supplier’s instruction (Bio-Rad, Hercules, CA, USA). Clarified lysates (30 μg protein per sample) were resolved on 12% SDS-polyacrylamide gels and then transferred to nitrocellulose membranes (Westborough, MA, USA). Resolved proteins were detected by specific primary antibodies and horseradish peroxidase-conjugated secondary antisera. The level of β-actin was determined as an internal control. […] Chemiluminescence signals were then detected by ChemiDoc imaging systems (Bio-Rad, Hercules, CA, USA) with the subsequent band densities quantified by ImageJ (https://imagej.net/ij/) analysis software (National Institutes of Health, MD, USA). […]
(§5) Chemiluminescence signals were then detected by the ChemiDoc Imaging Systems (Bio-Rad, […]
Background: A western blot detects proteins with antibodies after separation by electrophoresis.

The subject of another test is JNK. The test is described as follows: Stimulatory phosphorylation of JNK (Western blot), U87-MG. Conditions: 5 μM HOE-140, 1 µM bradykinin, 10 min. As to the method: as §3, §4, §5
The subject of the next test is ERK in U87-MG cells. The test is described as follows: ERK phosphorylation in U87-MG by SK-N-MC-derived conditioned media (CM-SK). The conditions noted are these: HOE-140 5 μM, 15 min pre-treatment. On the procedure: as §1, §2
The next test concerns ERK. The test is described as follows: Stimulatory phosphorylation of ERK (Western blot), U87-MG. Conditions: 5 μM HOE-140, 1 µM bradykinin, 10 min. As to the method: as §3, §4, §5
The subject of a further test is JNK in U87-MG cells. The test is described as follows: JNK phosphorylation in U87-MG by SK-N-MC-derived conditioned media (CM-SK). The conditions noted are these: HOE-140 5 μM, 15 min pre-treatment. On the procedure: as §1, §2
Test [1] has as its system B2R-mediated LIF secretion in U87-MG cells. Put plainly: Inhibition of bradykinin-induced LIF production (ELISA), U87-MG. Conditions: 5 μM HOE-140, 30 min pre-treatment, bradykinin 1 µM, 24 h. As to the method: Conditioned media were analyzed for the presence of multiple cytokines by using the cytokine multiplex assay kits (Merck Millipore, MA, USA) as previously described. Briefly, a bead mixture with various capture antibodies (50 μL) was added to a 96-well microtiter plate, followed by 50 μL of cytokine standard mix or test sample and then 25 μL of a biotinylated detection antibody mixture. The mixtures were incubated for 30 min at 25 °C with gentle shaking. Unbound antibodies were removed by three gentle washes. Finally, 50 μL of streptavidin–PE solution was added and incubated for another 30 min with gentle shaking. The detection beads were then washed again and resuspended in 120 μL of reading buffer. The Bio-Plex™ 200 system (Bio-Rad Laboratories, Hercules, CA, USA) with the Bio-Plex manager software (version 5.0) was utilized for signal detection and data analysis. Curve fitting was applied to each standard curve according to the manufacturer’s manual and sample concentrations were interpolated from the standard curves. Individual detections for LIF and IL-6 were performed using the corresponding ELISA kits from Abcam (Cambridge, UK) according to the manufacturer’s instructions.
as §3
For orientation: ELISA stands for enzyme-linked immunosorbent assay.

For the substance HOE-140, the “inhibition of CM-SK-stimulated p38 phosphorylation” value in the test on p38 in U87-MG cells was “significantly inhibited”. For the same substance, in the test with p38 MAPK, the “inhibition of bradykinin-induced p38 MAPK activation” value was “completely abolished”. Further, the “inhibition of bradykinin-induced JNK activation” value with JNK is “completely abolished”. In addition, in the test with ERK in U87-MG cells, the “inhibition of CM-SK-stimulated ERK phosphorylation” value is on record as “significantly inhibited”. Moreover, the “inhibition of bradykinin-induced ERK activation” value in the test on ERK is “completely abolished”. Moreover, in the test with JNK in U87-MG cells, the “inhibition of CM-SK-stimulated JNK phosphorylation” value is “significantly inhibited”. The “inhibition of bradykinin-induced LIF production” value in test [1] is recorded as “blocked the ability of bradykinin to stimulate LIF production”.
